Series [1] concerns full thickness excision wounds. In words: In vivo evaluation for wound healing: full thickness excision wounds on the dorsum of mice. From the text:
Example 10: In Vivo Evaluation of the LCB's for Wound Healing: Twenty, 5-6 week old Balbc/J (stock #000651) male mice were transferred to Jackson Labs in vivo research laboratory in Sacramento, Calif. The mice were ear notched for identification and housed in individually and positively ventilated polycarbonate cages with HEPA filtered air. Bed-o-cob corn cob bedding was used and cages were changed every two weeks. The animal room is lighted entirely with artificial fluorescent lighting, with a controlled 12 h light/dark cycle. The normal temperature and relative humidity ranges in the animal rooms are 22 t 4° C. and 50 t 15%, respectively. The animal rooms were set to have 15 air exchanges per hour. Filtered tap water, acidified to a pH of 2.8 to 3.1, and rodent chow was provided ad libitum. Following a 5-7 days acclimation, mice were randomized by body weight into 2 cohorts of 10 mice each. On study day 0, mice were anesthetized and two full thickness excision wounds (˜6 mm) were made on the dorsum (backs) of mice. One of the wounds was covered using a semi-occlusive polyurethane dressing (Tegaderm™). Dressings covered the wounds for 5 consecutive (5) days from the day of wounding (d 0). The doses of 4-hydroxy-4′-methoxytolan were based on those that promoted lesion healing in mice in previous herpes virus studies. Wound measurements were made on day 5, 7, 9 and 11. Digital images of wounds were taken of each mouse. Test agents were a viscous paste and wounds were surrounded with a saddle glued in place to eliminate cross contamination and wound closure due to contraction. Therefore, changes in wound area are due to re-epithelization. During the five days all wounds are covered with glycerin (control) or glycerin and test agent. At day 5, test agents were removed and changes in wound area were measured (as area/area %) in an effort to gauge the persistence of the compounds in the wound site. By day 5, glycerin produced 26.1% wound closure, whereas 4-hydroxy-4′-methoxytolan (2.5%) closed produced 92.8% wound closure and 5% 4-hydroxy-4′-methoxytolan produced 91.4% wound closure. Prior to statistical analysis a test for Normality was run and a Z-score computed to confirm a normally distributed area for each wound on day 1 for all mice across groups, r^2=0.989. Statistics are computed based One-Way ANOVA's comparing changes in wound area on day 5. All mice tolerated the treatments and all weekly clinical observations report bright, alert, responsive, and hydrated mice.

For series [2], the system named is skin (keratinocyte layer, dermis). In words: H&E staining of excised skin samples. The format is in vivo. Conditions: 5% (w/v). From the text: Example 11: Excised skin samples treated with a control or with 5% (w/v) 4-hydroxy-4′-methoxytolan.
Setting [3] is: 2.5% (w/v) topical in glycerin, day 0.
The mark [4] stands for this setting: 2.5% (w/v) topical in glycerin, day 5.
The mark [5] stands for this setting: 2.5% (w/v) topical in glycerin, day 7.
The mark [6] stands for this setting: 2.5% (w/v) topical in glycerin, day 9.
The mark [7] stands for this setting: 2.5% (w/v) topical in glycerin, day 11.
[8] abbreviates: 5% (w/v) topical in glycerin, day 0.
[9] abbreviates: 5% (w/v) topical in glycerin, day 5.
[10] abbreviates: 5% (w/v) topical in glycerin, day 7.
The mark [11] stands for this setting: 5% (w/v) topical in glycerin, day 9.
[12] abbreviates: 5% (w/v) topical in glycerin, day 11.

Regarding `COc1ccc(C#Cc2ccc(O)cc2)cc1` [4-hydroxy-4′-methoxytolan], the “Average Area” value in series [1] (setting [3]) came to 2.07 cm^2; in series [1] (setting [4]) it was 0.15 cm^2; in series [1] (setting [5]), 0.04 cm^2; in series [1] (setting [6]), 0.00 cm^2; in series [1] (setting [7]) it was 0.00 cm^2; in series [1] (setting [8]), 1.98 cm^2. The “Average Area” value in series [1] (setting [9]) is given as 0.17 cm^2; in series [1] (setting [10]), 0.08 cm^2; in series [1] (setting [11]) it was 0.00 cm^2; in series [1] (setting [12]), 0.00 cm^2. The “Wound Area (%) Closed” value was determined as 0% in series [1] (setting [3]); 92.8% in series [1] (setting [4]); 100% in series [1] (setting [5]); 100.0% in series [1] (setting [6]); 100.0% in series [1] (setting [7]); 0% in series [1] (setting [8]). Also, the “Wound Area (%) Closed” value in series [1] (setting [9]) was 91.4%; in series [1] (setting [10]), 100%; in series [1] (setting [11]) it was 100.0%; in series [1] (setting [12]) it was 100.0%. Besides, in series [1] (topical 2.5% and 5%, Balbc/J male mice), the “Tolerability of treatment, weekly clinical observations” value is reported as “tolerated”. Besides, the Keratinocyte proliferation entry in series [2] (H&E staining) was “extensive keratinocyte proliferation”. The Keratinocyte cell layers in series [2] (control 1-2 cells thick) is 7-8 cells thick.

The values are drawn from patent US11786481B2, “Formulation and process for modulating wound healing” (BioMendics, LLC, priority 2015, dated 2023).
